From ChEMBL document CHEMBL1153927, “Benzimidazolone-based serotonin 5-HT1A or 5-HT7R ligands: synthesis and biological evaluation” (Bioorg Med Chem Lett, 2009)

Assays:
[1] = target: 5-hydroxytryptamine receptor 7 (Homo sapiens, UniProt P34969); test: Inhibition of human 5HT7 receptor expressed in HEK293 cells by competitive binding assay; assay type: cell-based
[2] = target: T1, 5-hydroxytryptamine receptor 1A (Rattus norvegicus, UniProt P19327); test: Inhibition of rat hippocampus 5HT1A receptor by competitive binding assay; assay type: tissue-based
T1 sequence (P19327 whole entry): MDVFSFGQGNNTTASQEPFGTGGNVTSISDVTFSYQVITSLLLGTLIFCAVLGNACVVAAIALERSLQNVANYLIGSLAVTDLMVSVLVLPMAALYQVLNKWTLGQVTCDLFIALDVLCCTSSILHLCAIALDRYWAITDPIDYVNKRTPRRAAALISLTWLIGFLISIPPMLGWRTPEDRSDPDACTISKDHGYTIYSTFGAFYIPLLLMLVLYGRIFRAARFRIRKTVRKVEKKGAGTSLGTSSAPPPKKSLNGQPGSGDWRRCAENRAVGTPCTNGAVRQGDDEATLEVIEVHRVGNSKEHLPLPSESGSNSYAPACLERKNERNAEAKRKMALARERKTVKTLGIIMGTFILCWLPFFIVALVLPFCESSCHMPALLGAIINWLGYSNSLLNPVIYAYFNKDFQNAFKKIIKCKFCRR

Sequence of 5-hydroxytryptamine receptor 7 (P34969 whole entry): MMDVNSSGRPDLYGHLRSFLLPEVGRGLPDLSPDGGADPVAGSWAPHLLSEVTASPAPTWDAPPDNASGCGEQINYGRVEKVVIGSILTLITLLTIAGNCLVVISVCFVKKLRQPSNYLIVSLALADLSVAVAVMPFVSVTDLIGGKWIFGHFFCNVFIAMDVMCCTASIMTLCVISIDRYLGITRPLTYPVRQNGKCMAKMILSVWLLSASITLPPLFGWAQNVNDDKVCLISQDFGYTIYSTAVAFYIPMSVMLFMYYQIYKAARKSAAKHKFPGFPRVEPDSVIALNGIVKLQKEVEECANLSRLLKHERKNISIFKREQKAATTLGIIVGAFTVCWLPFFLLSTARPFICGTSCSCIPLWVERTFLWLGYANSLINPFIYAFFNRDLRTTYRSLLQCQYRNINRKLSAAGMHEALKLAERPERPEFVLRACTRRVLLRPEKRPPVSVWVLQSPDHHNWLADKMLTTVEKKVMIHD

**Q.** How did the Ki [1] turn out when `COc1ccccc1N1CCN(Cc2ccn(-c3ccccc3C)c2)CC1` was run?
**A.** The Ki was 4.3 nM.

**Q.** How did the Ki [2] turn out when `O=c1n(CCN2CCN(c3ccccc3)CC2)c2ccccc2n1-c1ccccc1` was run?
**A.** Its Ki is 467 nM.

**Q.** What about the Ki [1] of the same molecule?
**A.** The Ki was 1230 nM.

**Q.** Which Ki [2] does the source give for `O=c1[nH]c2ccccc2n1CCCCN1CCN(c2ccccc2)CC1` here?
**A.** Its Ki is 84 nM.

**Q.** What about the Ki [1] of the same molecule?
**A.** The Ki was 48 nM.

**Q.** `COc1ccccc1N1CCN(CCCCn2c(=O)[nH]c3ccccc32)CC1` was tested. Which Ki [2] did it give?
**A.** The Ki was 6 nM.

**Q.** And the Ki [1]?
**A.** Its Ki is 26 nM.

**Q.** What does the source list for `COc1ccccc1N1CCN(CCCCCn2c(=O)[nH]c3ccccc32)CC1`?
**A.** Ki [2]: 33 nM; Ki [1]: 38 nM

**Q.** What does the source list for `COc1ccc(-n2c(=O)n(CCN3CCN(c4ccccc4OC)CC3)c3ccccc32)cc1`?
**A.** Ki [2]: 22 nM; Ki [1]: 296 nM

**Q.** What does the source list for `COc1ccc(-n2c(=O)n(CCCN3CCN(c4ccccc4OC)CC3)c3ccccc32)cc1`?
**A.** Ki [2]: 26 nM; Ki [1]: 168 nM

**Q.** How did the Ki [2] turn out when `COc1ccc(-n2c(=O)n(CCCCN3CCN(c4ccccc4OC)CC3)c3ccccc32)cc1` was run?
**A.** Its Ki is 36 nM.

**Q.** And the Ki [1]?
**A.** The Ki was 267 nM.

**Q.** With `COc1ccccc1N1CCN(CCn2c(=O)[nH]c3ccccc32)CC1` as the molecule, how does the Ki [2] read?
**A.** Its Ki is 25 nM.

**Q.** What about the Ki [1] of the same molecule?
**A.** The Ki was 1840 nM.

**Q.** `COc1cccc(-n2c(=O)n(CCN3CCN(c4ccccc4)CC3)c3ccccc32)c1` was tested. Which Ki [2] did it give?
**A.** Its Ki is 646 nM.

**Q.** What about the Ki [1] of the same molecule?
**A.** Its Ki is 864 nM.

**Q.** With `COc1ccc(-n2c(=O)n(CCN3CCN(c4ccccc4)CC3)c3ccccc32)cc1` as the molecule, how does the Ki [2] read?
**A.** The Ki was 340 nM.

**Q.** And the Ki [1]?
**A.** Its Ki is 566 nM.

**Q.** With `Cc1ccccc1N1CCN(CCn2c(=O)n(-c3ccccc3)c3ccccc32)CC1` as the molecule, how does the Ki [2] read?
**A.** The Ki was 168 nM.

**Q.** What about the Ki [1] of the same molecule?
**A.** The Ki was 1870 nM.

**Q.** With `Cc1ccccc1-n1c(=O)n(CCN2CCN(c3ccccc3)CC2)c2ccccc21` as the molecule, how does the Ki [2] read?
**A.** Its Ki is 636 nM.

**Q.** What about the Ki [1] of the same molecule?
**A.** Its Ki is 902 nM.

**Q.** `COc1ccccc1N1CCN(CCCn2c(=O)[nH]c3ccccc32)CC1` was tested. Which Ki [2] did it give?
**A.** Its Ki is 3.4 nM.

**Q.** What about the Ki [1] of the same molecule?
**A.** Its Ki is 40 nM.

**Q.** With `O=c1[nH]c2ccccc2n1CCCN1CCN(c2ccccc2)CC1` as the molecule, how does the Ki [2] read?
**A.** The Ki was 26 nM.

**Q.** And the Ki [1]?
**A.** Its Ki is 243 nM.

**Q.** What does the source list for `O=c1[nH]c2ccccc2n1CCCCCCN1CCN(c2ccccc2)CC1`?
**A.** Ki [2]: 48 nM; Ki [1]: 20 nM

**Q.** Which Ki [2] does the source give for `O=c1[nH]c2ccccc2n1CCCCCN1CCN(c2cccc(Cl)c2)CC1` here?
**A.** The Ki was 66 nM.

**Q.** And the Ki [1]?
**A.** Its Ki is 11 nM.

**Q.** What does the source list for `O=c1[nH]c2ccccc2n1CCN1CCN(c2ccccc2)CC1`?
**A.** Ki [2]: 392 nM; Ki [1]: 1030 nM

**Q.** What does the source list for `O=c1[nH]c2ccccc2n1CCCCCN1CCN(c2ccccc2)CC1`?
**A.** Ki [2]: 269 nM; Ki [1]: 6 nM

**Q.** With `COc1cccc(-n2c(=O)n(CCN3CCN(c4ccccc4C)CC3)c3ccccc32)c1` as the molecule, how does the Ki [2] read?
**A.** Its Ki is 182 nM.

**Q.** What about the Ki [1] of the same molecule?
**A.** Its Ki is 2500 nM.

**Q.** How did the Ki [2] turn out when `Cc1ccccc1N1CCN(CCn2c(=O)n(-c3ccccc3C)c3ccccc32)CC1` was run?
**A.** The Ki was 375 nM.

**Q.** And the Ki [1]?
**A.** Its Ki is 18000 nM.

**Q.** For `O=c1[nH]c2ccccc2n1CCCCCN1CCN(c2ccc(Cl)cc2)CC1`, which Ki [2] is on record?
**A.** The Ki was 454 nM.

**Q.** And the Ki [1]?
**A.** The Ki was 7 nM.

**Q.** `COc1ccccc1N1CCN(CCCCCCn2c(=O)[nH]c3ccccc32)CC1` was tested. Which Ki [2] did it give?
**A.** Its Ki is 12 nM.

**Q.** What about the Ki [1] of the same molecule?
**A.** Its Ki is 78 nM.
